# Measurements published in US7053057B2, “Caspase inhibitors and uses thereof” (Vertex Pharmaceuticals Incorporated, priority 2000, dated 2006).
# Square brackets hold non-standard residues; d marks the D form. Peptide text beside a SMILES is read from it. * marks the point of attachment. Cbz = O=C(OCc1ccccc1)*; Thz = O=C(O)[CH]1CSCN1; CH2F = FC*
# Key:
# [1] = test system: IL-1β secretion from PBMC; experiment: Inhibition of IL-1β secretion from mixed population of PBMC; assay type: cell-based; details: human PBMC, LPS 50 ng/ml, 16–18 h, mature IL-1β in supernatant
# Experimental: Processing of pre-IL-1β by caspase-1 can be measured in cell culture using a variety of cell sources. Human PBMC obtained from healthy donors provides a mixed population of lymphocyte and mononuclear cells that produce a spectrum of interleukins and cytokines in response to many classes of physiological stimulators.
# The test compound is dissolved in Dimethyl Sulphoxide (DMSO,Sigma #D-2650) to give a 100 mM stock solution. This is diluted in complete medium consisting of RPMI containing 10% heat inactivated FCS (Gibco BRL #10099-141), 2 mM L-Glutamine (Sigma, #G-7513), 100U penicillin and 100 μg/ml streptomycin (Sigma #P-7539). The final concentration range of test compound is from 100 μM down to 6 nM over eight dilution steps. The highest concentration of test compound is equivalent to 0.1% DMSO in the assay.
# Human PBMC are isolated from Buffy Coats obtained from the blood bank using centrifugation on Ficoll-Paque leukocyte separation medium (Amersham, #17-1440-02) and the cellular assay is performed in a sterile 96 well flat-bottomed plate (Nunc). Each well contains 100 μl of the cell suspension, 1×10^5 cells, 50 µl of compound dilutions and 50 μl of LPS (Sigma #L-3012) at 50 ng/ml final concentration. Controls consist of cells +/−LPS stimulation and a serial dilution of DMSO diluted in the same way as compound. The plates are incubated for 16–18 h at 37° C. in 5% CO2 & 95% humidity atmosphere.
# After 16–18 h the supernatants are harvested after centrifuging the plates at 100×g at 18° C. for 15 min and assayed for their IL-1β content. Measurement of mature IL-1[…] in the supernatant is performed using the Quantikine kits (R&D Systems) according to manufacturer's instructions. Mature IL-1β levels of about 600–1500 pg/ml are observed for PBMCs in positive control wells.
# The inhibitory potency of the compounds can be represented by an IC50 value, which is the concentration of inhibitor at which 50% of the mature IL-1β is detected in the supernatant as compared to the positive controls.
# [2] = target: recombinant, purified human Caspase-8 (Homo sapiens, UniProt Q14790); experiment: Caspase-8 enzyme inhibition assay (fluorogenic substrate cleavage); assay type: biochemical; details: second order rate constant of enzyme inactivation; substrate Acetyl-Asp-Glu-Val-Asp-amino-4-methylcoumarin
# Description: (§1) The assays for caspase inhibition are based on the cleavage of a fluorogenic substrate by recombinant, purified human Caspases -1, -3, or -8. The assays are run in essentially the same way as those reported by Garcia-Calvo et al. (J. Biol. Chem. 273 (1998), 32608–32613), using a substrate specific for each enzyme. The substrate for Caspase-1 is Acetyl-Tyr-Val-Ala-Asp-amino-4-methylcoumarin (SEQ ID NO:1). The substrate for Caspases -3, and -8 is Acetyl-Asp-Glu-Val-Asp-amino-4-methylcoumarin (SEQ ID NO:2).
# (§2) The observed rate of enzyme inactivation at a particular inhibitor concentration, kobs, is computed by direct fits of the data to the equation derived by Thornberry et al. (Biochemistry 33 (1994), […]) using a nonlinear least-squares analysis computer program (PRISM 2.0; GraphPad software). To obtain the second order rate constant, kinact, kobs values are plotted against their respective inhibitor concentrations and kinact values are subsequently calculated by computerized linear regression.
# [3] = target: T1, recombinant, purified human Caspase-1 (Homo sapiens, UniProt P29466); experiment: Caspase-1 enzyme inhibition assay (fluorogenic substrate cleavage); assay type: biochemical; details: second order rate constant of enzyme inactivation; substrate Acetyl-Tyr-Val-Ala-Asp-amino-4-methylcoumarin
# T1 sequence (P29466 120-297 limits assumed): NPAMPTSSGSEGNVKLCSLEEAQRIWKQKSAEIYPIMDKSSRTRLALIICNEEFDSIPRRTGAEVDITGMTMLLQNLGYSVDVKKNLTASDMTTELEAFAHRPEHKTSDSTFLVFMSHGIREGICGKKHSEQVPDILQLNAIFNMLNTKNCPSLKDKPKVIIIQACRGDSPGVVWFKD
# T1 sequence (P29466 317-404 limits assumed): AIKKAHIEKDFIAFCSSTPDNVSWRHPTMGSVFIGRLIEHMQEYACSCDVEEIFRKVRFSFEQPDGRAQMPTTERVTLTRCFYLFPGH
# Description: as §1, §2
# cortical neurons = experiment: Hypoxia-induced apoptosis of cortical neurons assay; assay type: cell-based, Wistar rat; details: Cortical neurone; rat embryo cortical neurons, hypoxia 42 hours, DNA fragmentation ELISA
# Experimental: Apoptosis can be induced by growth factor withdrawal and by hypoxia. This assay measures the extent of DNA fragmentation indicating the effectiveness of caspase inhibitors to prevent apoptosis. Experimental Procedure Cortical neurons were dissociated from Wistar rat embryos (E17) by a modification of the procedure of Rogers et al 1997, Brain Res Bulletin 44:131. Cerebral cortices were isolated aseptically from 15–20 Wistar rat embryos. A cell suspension was prepared by mincing the cerebral cortices and digesting them with papain. Cells were washed with ovomucoid enzyme inhibitor and DNaseI and plated onto Poly D lysine coated plates in high glucose DMEM containing 10% heat-inactivated foetal calf serum, L-glutamine, penicillin and streptomycin. The yield of neurons was 10^7 per embryo and they were 80–90% viable as assessed by Trypan blue exclusion.
# Cells were seeded at 1×10^6 cells per cm^2 in 96-well plates and cultured in complete medium (in high glucose DMEM containing 10% heat-inactivated foetal calf serum, L-glutamine, penicillin and streptomycin) at 37° C. in a normal atmosphere for 48 hours prior to the hypoxia experiments. Hypoxia was performed as described (Tamatani et al.1998, Molecular Brain Research, 58:27). The normal cell medium was replaced by hypoxic medium and cells were incubated in an atmosphere of 95% N2/5% CO2 for 42 hours. For compound testing, compounds were dissolved in DMSO at 100 mM then diluted in medium and added to the culture at the beginning of the hypoxic period. Apoptosis was measured using an ELISA assay to detect DNA fragmentation (Roche). Controls included cells cultured in aerobic conditions in serum-containing medium.
# [4] = target: T2, recombinant, purified human Caspase-3 (Homo sapiens, UniProt P42574); experiment: Caspase-3 enzyme inhibition assay (fluorogenic substrate cleavage); assay type: biochemical; details: second order rate constant of enzyme inactivation; substrate Acetyl-Asp-Glu-Val-Asp-amino-4-methylcoumarin
# T2 sequence (P42574 29-175 limits assumed): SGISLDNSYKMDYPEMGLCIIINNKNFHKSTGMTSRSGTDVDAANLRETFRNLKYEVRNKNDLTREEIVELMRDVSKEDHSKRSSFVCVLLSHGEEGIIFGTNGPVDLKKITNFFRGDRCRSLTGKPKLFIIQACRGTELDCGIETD
# T2 sequence (P42574 176-277 limits assumed): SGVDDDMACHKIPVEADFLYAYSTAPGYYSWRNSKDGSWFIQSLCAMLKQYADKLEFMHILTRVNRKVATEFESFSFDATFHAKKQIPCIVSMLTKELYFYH
# Description: The assays for caspase inhibition are based on the cleavage of a fluorogenic substrate by recombinant, purified human Caspases -1, -3, or -8.
# To obtain the second order rate constant, kinact, kobs values are plotted against their respective inhibitor concentrations and kinact values are subsequently calculated by computerized linear regression.
# Chain of recombinant, purified human Caspase-8 (Q14790 217-374 limits assumed): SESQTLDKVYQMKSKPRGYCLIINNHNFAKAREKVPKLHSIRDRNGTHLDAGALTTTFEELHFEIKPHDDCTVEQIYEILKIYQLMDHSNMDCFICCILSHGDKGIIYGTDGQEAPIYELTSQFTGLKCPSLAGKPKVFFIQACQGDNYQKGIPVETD
# Chain of recombinant, purified human Caspase-8 (Q14790 385-479 limits assumed): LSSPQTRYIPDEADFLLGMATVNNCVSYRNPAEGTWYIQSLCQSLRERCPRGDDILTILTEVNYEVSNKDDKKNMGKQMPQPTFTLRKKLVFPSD
SMILES,IC50 [1],C-8 Kinact [2],C-1 Kinact [3],IC50 (cortical neurons),C-3 Kinact [4]
O=C(O)CC(NC(=O)C1CCCN1C(=O)OCc1ccccc1)C(=O)CF (stereo not drawn) [Cbz-Pro-Asp-fmk] (Cbz-Pro-Asp-CH2F; configuration not given here),> 10000 nM,15.5 × 1000 M^−1s^−1,7.5 × 1000 M^−1s^−1,2780 nM,
"O=C(O)CC(NC(=O)[C@@H]1CCc2ccccc2N1C(=O)OCc1ccccc1)C(=O)CF (stereo partly drawn) [Example 3, [3S/R,(2S)]-3-(1-Benzyloxycarbonyl-1,2,3,4-tetrahydro-quinolinyl-2-carboxamido)-5-fluoro-4-oxo-pentanoic acid]",1150 nM,122 × 1000 M^−1s^−1,318 × 1000 M^−1s^−1,,239.5 × 1000 M^−1s^−1
"O=C(O)CC(NC(=O)[C@@H]1CCCCN1C(=O)OCc1cc(Cl)ccc1Cl)C(=O)CF (stereo partly drawn) [Example 23, [3S/R,(2S)]-5-Fluoro-3-(1-(2,5-dichlorobenzyloxycarbonyl)-2-piperidinecarboxamido)-4-oxo-pentanoic acid]",,,,336 nM,
O=C(O)CC(NC(=O)[C@@H]1CCCCN1C(=O)O[C@H](c1cccc(Cl)c1)C(F)(F)F)C(=O)CF (stereo partly drawn) [Example 34],,839 × 1000 M^−1s^−1,518 × 1000 M^−1s^−1,463 nM,181 × 1000 M^−1s^−1
CC(C)[C@H](NC(=O)OCc1ccc(Cl)cc1)C(=O)NC(CC(=O)O)C(=O)CF (stereo partly drawn) [4-ClCbz-Val-Asp-fmk],,175 × 1000 M^−1s^−1,69 × 1000 M^−1s^−1,1980 nM,
O=C(O)CC(NC(=O)C1CSCN1C(=O)OCc1ccccc1)C(=O)CF (stereo not drawn) [Cbz-Thz-Asp-fmk] (Cbz-[Thz]-Asp-CH2F; configuration not given here),2310 nM,12 × 1000 M^−1s^−1,227.5 × 1000 M^−1s^−1,1560 nM,
"O=C(O)CC(NC(=O)[C@@H]1CCCCN1C(=O)OCc1cccc(Cl)c1)C(=O)CF (stereo partly drawn) [Example 5, [3S/R,(2S)]-3-(1-(3-Chlorobenzyloxycarbonyl)-2-piperidinecarboxamido)-5-fluoro-4-oxo-pentanoic acid]",500 nM,,,,
